Data reported in publication PMC9167584, “Calotropin and corotoxigenin 3-O-glucopyranoside from the desert milkweed Asclepias subulata inhibit the Na^+/K^+-ATPase activity” (PeerJ, 2022).
“And” between values parts separate entries of the source, which are not always exact repeats. Identical values can stand only once.

Assays:
[1] = target: brain porcine Na^+/K^+-ATPase; experiment: In vitro inhibitory assay of Na+/K+-ATPase (colorimetric Pi release); format: biochemical; details: brain porcine enzyme; mean ± SD; triplicate; read-out: Inhibition of Na^+/K^+-ATPase IC50
Procedure: We used the inhibitory assay method described by [Mugpasao et al. (2014)]. The enzymatic activity of Na^+/K^+-ATPase was determined by colorimetric quantification of orthophosphate (Pi) released during the ATP hydrolysis according to the method of [Taussky, Shorr & Kurzmann (1953)]. The inhibition assays were done using commercial brain porcine Na^+/K^+-ATPase. Protein concentration was determined according to the Bradford method ([Bradford, 1976]) using bovine serum albumin as standard. As inhibitors, we used cardenolides ouabain, calotropin, and C3OG. The cardenolide ouabain was used as a reference molecule. The reaction was done in a 96-wells plate, adding 10 μL of Na^+/K^+-ATPase solution (0.5 U/mL) with 4 μL of NaCl/KCl solution (35 mM of KCl and 1.65 M of NaCl), 70 μL of Tris-HCl buffer (30 mM Tris-HCl, 0.5 mM of EDTA and 7.8 mM of MgCl2) at 37 °C and 30 min with 6 μL either dimethyl sulfoxide (DMSO) or test compounds on each well. The range concentrations of inhibitors were 100.0–0.001 μM of ouabain and 1000.0–0.01 μM of calotropin and C3OG. Then, 20 μL of ATP solution 22 mM was added to each well, and the reaction solution was incubated at 37 °C for 15 min.
Next, we added 30 μL of trichloroacetic acid (TCA) at 30% (w/v) to each well to block the reaction. The 96-wells plate was mixed slightly and centrifuged at 3,000 rpm for 15 min. Finally, 50 μL of the supernatant was transferred to another 96-well plate and were coated with 100 μL of Taussky-Shorr solution. The absorbance was read at 660 nm in a microplate reader ThermoScientific Multiskan (Thermo Fisher, Vantaa, Finland) after incubation of 5 min at room temperature, protected from the light. The color intensity was proportional to the release of orthophosphate, indicating ATP hydrolysis and the Na^+/K^+-ATPase activity. The inhibition of the enzymatic activity by cardenolides was managed in the percentage of Na^+/K^+-ATPase activity compared with control. The data of inhibitory Na^+/K^+-ATPase activity were expressed in IC50 and standard deviation. All experiments were performed in triplicate. […]

[2] = test system: porcine brain Na^+/K^+-ATPase; experiment: Kinetic analysis of Na+/K+-ATPase inhibition (Michaelis-Menten, Lineweaver-Burk); format: biochemical; details: for Type of inhibition: Lineweaver-Burk plot, 0.1 and 1.0 μM inhibitor; for Ki: uncompetitive inhibition model, ATP as substrate
Procedure: The Michaelis-Menten kinetic parameters Km and Vmax of porcine brain Na^+/K^+-ATPase were determined from the initial velocities by modifying the ATP concentrations from 0.125 to 4.0 mM using the enzymatic standard conditions previously mentioned. Initial rates were recorded for 15 min in intervals of 3 min. The measurements were done in the absence or presence of inhibitors. The concentration of Na^+, K^+, and Mg^2+ ions remained constant. The initial velocity when the A. subulata cardenolides were tested was recorded for 15 min. Kinetic analyses were carried out in the presence or absence of two different concentrations of cardenolides (0.1 and 1.0 μM) to determine the nature of the inhibition of the Na^+/K^+-ATPase. All experiments were performed in triplicate. The experimental data were fitted to the Michaelis-Menten equation by non-linear regression analysis. The type of inhibition was obtained by Lineweaver-Burk double reciprocal plots using GraphPad Prism software version 8 (GraphPad Software Inc., San Diego, CA, USA).

A549, PC-3, and LS-180 = test system: A549, PC-3, and LS-180; set-up: method as in Rascón-Valenzuela et al. (2015); details: human cancer cell lines A549, PC-3, LS-180; ref Rascón-Valenzuela et al. (2015); cited from earlier work
[3] = target: porcine cerebral cortex Na^+/K^+-ATPase; set-up: method as in Agrawal et al. (2021); details: porcine cerebral cortex enzyme; ref Agrawal et al. (2021); cited from earlier work
Na^+/K^+-ATPase = target: Na^+/K^+-ATPase; set-up: method as in Ren et al., 2020; details: reference inhibitor; ref Ren et al., 2020; cited from earlier work
[4] = in presence of 0.1 μM inhibitor
[5] = in presence of 1.0 μM inhibitor

Row | SMILES | IC50 [1] [nM] | Type of inhibition [2] | Vmax [2, 4] [μmolPi/mg/min] | Vmax [2, 5] [μmolPi/mg/min] | Ki [2] | IC50 (cytotoxicity) (A549, PC-3, and LS-180) | IC50 [3] [nM] | IC50 (Na^+/K^+-ATPase) [nM]
1 | C[C@]12CCC3C(CCC4C[C@@H](O[C@@H]5O[C@H](CO)[C@@H](O)[C@H](O)[C@H]5O)CC[C@@]43C=O)[C@@]1(O)CC[C@@H]2C1=CC(=O)OC1 (stereo partly shown) [C3OG, corotoxigenin 3-O-glucopyranoside] | 870 ± 200 | Uncompetitive | 1.47 ± 0.08 | 0.80 ± 0.06 | 500 nM and 520 nM | micromolar order | – | –
2 | C[C@@H]1C[C@H](O)[C@]2(O)O[C@@H]3C[C@@]4(C=O)[C@@H](CC[C@@H]5[C@@H]4CC[C@]4(C)[C@@H](C6=CC(=O)OC6)CC[C@]54O)C[C@H]3O[C@@H]2O1 [Calotropin, calotropin] | 270 ± 60 | Uncompetitive | 2.17 ± 0.10 | 0.77 ± 0.10 | 200 ± 30 nM | nanomolar order | 270 | –
3 | C[C@@H]1O[C@@H](O[C@H]2C[C@@H](O)[C@]3(CO)[C@H]4[C@H](O)C[C@]5(C)[C@@H](C6=CC(=O)OC6)CC[C@]5(O)[C@@H]4CC[C@]3(O)C2)[C@H](O)[C@H](O)[C@H]1O [Ouabain, ouabain octahydrate, reference compound] | 120 ± 20 | uncompetitive | 2.11 ± 0.14 | 0.66 ± 0.04 | 160 nM | – | – | –
4 | C[C@H]1O[C@@H](O[C@H]2[C@@H](O)C[C@H](O[C@H]3[C@@H](O)C[C@H](O[C@H]4CC[C@@]5(C)[C@H](CC[C@@H]6[C@@H]5C[C@@H](O)[C@]5(C)[C@@H](C7=CC(=O)OC7)CC[C@]65O)C4)O[C@@H]3C)O[C@@H]2C)C[C@H](O)[C@@H]1O [digoxin] | – | – | – | – | – | – | – | 230
